Experimental data published in patent US5013546A, “Methods for modulating antibody production in treating patients with AIDS, ARC and other diseases” (Imreg, Inc., priority 1990, dated 1991).

How the values were obtained:
[1] = system: patients with AIDS or ARC with elevated IgG and IgA; assay: AIDS/ARC patients, effect of amplifier on serum Ig levels; type: in vivo, human; details: 50 pg biweekly, protocol of Example 10
Protocol: A group of 14 patients with AIDS or ARC were treated biweekly with a standard dosage of IMREG-1 (Beta-1.0), until six doses were given. All 14 initially had elevated IgG production and 13 also had elevated IgA production.
Data was averaged for the 14 high-IgG and 13 high-IgA patients.
A group of patients with AIDS or ARC are treated biweekly with 50 pg of ZB-4, according to the protocol of Example 10.
A group of patients with AIDS or ARC are treated biweekly with 50 pg of Beta-1.11, according to the protocol of Example 10.
A group of patients with AIDS or ARC are treated biweekly with 50 pg of Beta-1.12, according to the protocol of Example 10.

[2] = system: patient with common variable immunodeficiency, insufficient immunoglobulin production; assay: Titration of amplifier dosage, patient with common variable immunodeficiency; type: in vivo, human; details: 20 to 80 pg intradermal biweekly for eight weeks, 80 kg patient; before 350 ml/dl
Protocol: A patient suffers from common variable immunodeficiency, and they have an lowered serum immunoglobulin (IgG) level ([…]), indicative to the attending physician of insufficient immunoglobulin production. The physician considers it therapeutically desirable to raise the patient's level of immunoglobulin production.
(§1) The patient weighs 80 kg. The physician therefore administers intradermal injections of 20 to 80 pg of ZB-4 (0.25 to 1 pg/kg of body weight) in sterile saline, biweekly, for eight weeks, and then retests. (The appropriate amount is determined by trial and error, and is subject to the physician's discretion. It is believed that 1 pg/kg is an appropriate starting point for such trial and error determination in the case of insufficient Ig production.)

[3] = per 1 fg of the peptide; cited from earlier work
[4] = system: immunoglobulin-producing cells (plaque forming cells) in pokeweed mitogen-exposed PBLs; assay: RHPFC assay, PWM-stimulated PBLs of a normal subject cultured 6 days with amplifier; type: cell-based, human; details: averaged data
Protocol: In order to ascertain whether modulation of B-cell response is appropriate in a particular subject, and to titrate administration of amplifier appropriately for that subject, it is desirable to have a method for assaying the subject's immunoglobulin response. The method described below cultures mitogen-exposed cells in the presence and absence of added amplifier. Then the formation of plaque forming cells (PFCs) is assayed by a reverse hemolytic assay to determine whether and to what extent amplifier modulates formation of PFCs. A dose-dependent amplifier modulation of PFC formation is observed. The PFC assay described hereinafter is a modification of a conventional technique; it is believed that PFC assays have not hitherto been utilized to assess effects of the immunomodulators described herein.
Peripheral blood cell populations (hereinafter PBLs) from test subjects are prepared to isolate mononuclear cells, using conventional methods. The PBLs are adjusted to 10^6 cells/ml in RPM-1640 medium with 25 mM HEPES and L-glutamine (Whittaker Bioproducts), which has been supplemented with 10% heat-inactivated defined fetal bovine serum (Hy-Clone Labs.), 2% PSN Antibiotic (GIBCO Labs., Grand Island, N.Y.) (100×), and 1% extra L-glutamine (GIBCO Labs.) (100×). The resulting PBL mixture is set aside in an ice bucket (4° C.). […]

[5] = system: immunoglobulin-producing cells (plaque forming cells) in PWM-activated PBLs; assay: Modified RHPFC assay, amplifier added after B cells were potentiated (7th day); type: cell-based, human; details: amplifier added after potentiation
Protocol: The foregoing protocol 1 was then altered to test the in vitro effect of adding amplifiers Beta-1.0 or Beta-1.11 to the culture after B cells had already been potentiated (differentiated). Therefore, no amplifier was mixed with the PWM-activated cells at the outset, as in Example 1. Instead, at the stage where 1.12% agarose and Protein A-SRBC reagent are added (here, the 7th day), 25 ul of different amplifier dilutions is also added to the various replicates. The protocol was otherwise the same.
The procedure of Example 6 was repeated with the modified protocol just described.

[6] = system: patient with AIDS or ARC, excessive immunoglobulin production; assay: Titration of amplifier dosage, AIDS or ARC patient with elevated serum IgG; type: in vivo, human; details: 20 to 80 pg intradermal biweekly for eight weeks, 80 kg patient; before greater than 1400 mg/dl
Protocol: A patient suffers from AIDS or ARC, and they have an elevated serum immunoglobulin (IgG) level (greater than 1400 mg/dl), indicative to the attending physician of excessive immunoglobulin production. The physician considers it therapeutically desirable to lower the patient's level of immunoglobulin production.
as §1, with “The physician assays the patient's immunoglobulin response by the protocol of Examples 1-4, or alternative as in Example using ZB-4 (Beta-1.11). The patient” for “The patient”, “believed that 0.25 pg/kg is” for “believed that 1 pg/kg is”, “case of excessive Ig production.)” for “case of insufficient Ig production.)”

Substance | effect on Ig levels [1] | serum immunoglobulin level (IgG) after treatment [2] | amount of Beta-1.0 with approximately the same immunological activity as 1 fg [3] | maximum PFC factor relative to control ([4]; at 100 to 150 pM) | minimum PFC factor relative to control ([4]; between 1 and 10 pM) | concentration at maximum PFC factor [5] | maximum PFC factor relative to control [5] | minimum PFC factor [5] | serum immunoglobulin (IgG) level after treatment [6]
Tyr-Gly [ZB-4] | Substantially the same results are observed as were observed in Example 10 | 710 mg/dL | 5-10 fg | from about half again to double the control PFC factor | from about a quarter to a half the control PFC factor | 300 to 400 pM | slightly less than the control | approximately 35 % of the control PFC factor | 1280 mg/dL
Tyr-Gly-Gly [Beta-1.12] | Substantially the same results are observed as were observed in Example 10 |  | 5-10 fg |  |  |  |  |  | 
